Data published in ChEMBL document CHEMBL3885881, “DrugMatrix”.

Species: Rattus norvegicus
Experiment: DrugMatrix - Regimen: Daily Repeat
Format: toxicity, organism-based, Sprague-Dawley
Design: regimen Daily Repeat, gender Male, age 6-8 weeks
Details: in vivo, po, route oral GAVAGE, vehicle 100 % WATER; for ABSOLUTE BASOPHIL / ABSOLUTE EOSINOPHIL / ABSOLUTE LYMPHOCYTE / ABSOLUTE MONOCYTE / ABSOLUTE SEGMENTED NEUTROPHIL / BASOPHIL / EOSINOPHIL / ERYTHROCYTE COUNT / HEMATOCRIT / HEMOGLOBIN / LEUKOCYTE COUNT / LYMPHOCYTE / MEAN CORPUSCULAR HEMOGLOBIN / MEAN CORPUSCULAR HEMOGLOBIN CONCENTRATION / MEAN CORPUSCULAR VOLUME / MONOCYTE / NEUTROPHIL / NUCLEATED RED BLOOD CELLS / PLATELET COUNT: tissue Blood; for ALANINE AMINOTRANSFERASE / ALBUMIN / ALKALINE PHOSPHATASE / ASPARTATE AMINOTRANSFERASE / BLOOD UREA NITROGEN / CARBON DIOXIDE / CHLORIDE / CHOLESTEROL / CREATINE PHOSPHOKINASE / CREATININE / GLUCOSE / LIPASE / PHOSPHORUS / POTASSIUM / SODIUM / TOTAL BILIRUBIN / TOTAL PROTEIN / URIC ACID: tissue Plasma
[1] = 0 mg/kg, 72 h, dose level Control, time 3 day
[2] = 0 mg/kg, 120 h, dose level Control, time 5 day
[3] = 10 mg/kg, 72 h, dose level Low, time 3 day
[4] = 10 mg/kg, 120 h, dose level Low, time 5 day

## Fc1ccc([C@@H]2CCNC[C@H]2COc2ccc3c(c2)OCO3)cc1 [PAROXETINE]
[1]
  ABSOLUTE BASOPHIL: 0 CELLS/uL
  ABSOLUTE EOSINOPHIL: 32.5 CELLS/uL
  ABSOLUTE LYMPHOCYTE: 9305.83 CELLS/uL
  ABSOLUTE MONOCYTE: 43.83 CELLS/uL
  ABSOLUTE SEGMENTED NEUTROPHIL: 817.83 CELLS/uL
  BASOPHIL: 0%
  EOSINOPHIL: 0.33%
  ERYTHROCYTE COUNT: 5.38 x10E6/uL
  HEMATOCRIT: 33.63%
  HEMOGLOBIN: 13.17 G/DL
  LEUKOCYTE COUNT: 10.2 x10E3/uL
  LYMPHOCYTE: 91.17%
  MEAN CORPUSCULAR HEMOGLOBIN: 24.5 pg
  MEAN CORPUSCULAR HEMOGLOBIN CONCENTRATION: 39.13 G/DL
  MEAN CORPUSCULAR VOLUME: 62.53 fL
  MONOCYTE: 0.5%
  NEUTROPHIL: 8%
  NUCLEATED RED BLOOD CELLS: 0.17 /100WBC
  PLATELET COUNT: 858 x10E3/uL
  ALANINE AMINOTRANSFERASE: 55.67 u/L
  ALBUMIN: 4.07 G/DL
  ALKALINE PHOSPHATASE: 337 u/L
  ASPARTATE AMINOTRANSFERASE: 84 u/L
  BLOOD UREA NITROGEN: 13.17 mg/dL
  CARBON DIOXIDE: 34.17 mmol/L
  CHLORIDE: 99.33 MEQ/L
  CHOLESTEROL: 78.83 mg/dL
  CREATINE PHOSPHOKINASE: 576.83 u/L
  CREATININE: 0.17 mg/dL
  GLUCOSE: 152.67 mg/dL
  LIPASE: 9.5 u/L
  PHOSPHORUS: 10.78 mg/dL
  POTASSIUM: 6.34 MEQ/L
  SODIUM: 144.12 MEQ/L
  TOTAL BILIRUBIN: 0.18 mg/dL
  TOTAL PROTEIN: 6.08 G/DL
  URIC ACID: 0.65 mg/dL
[2]
  ABSOLUTE BASOPHIL: 0 CELLS/uL
  ABSOLUTE EOSINOPHIL: 31.17 CELLS/uL
  ABSOLUTE LYMPHOCYTE: 7918.33 CELLS/uL
  ABSOLUTE MONOCYTE: 58.33 CELLS/uL
  ABSOLUTE SEGMENTED NEUTROPHIL: 725.5 CELLS/uL
  BASOPHIL: 0%
  EOSINOPHIL: 0.33%
  ERYTHROCYTE COUNT: 5.32 x10E6/uL
  HEMATOCRIT: 33.53%
  HEMOGLOBIN: 13.17 G/DL
  LEUKOCYTE COUNT: 8.73 x10E3/uL
  LYMPHOCYTE: 90.33%
  MEAN CORPUSCULAR HEMOGLOBIN: 24.82 pg
  MEAN CORPUSCULAR HEMOGLOBIN CONCENTRATION: 39.33 G/DL
  MEAN CORPUSCULAR VOLUME: 63.12 fL
  MONOCYTE: 0.67%
  NEUTROPHIL: 8.67%
  NUCLEATED RED BLOOD CELLS: 0 /100WBC
  PLATELET COUNT: 1144.83 x10E3/uL
  ALANINE AMINOTRANSFERASE: 60.5 u/L
  ALBUMIN: 3.97 G/DL
  ALKALINE PHOSPHATASE: 343.17 u/L
  ASPARTATE AMINOTRANSFERASE: 80.83 u/L
  BLOOD UREA NITROGEN: 15 mg/dL
  CARBON DIOXIDE: 31 mmol/L
  CHLORIDE: 99.75 MEQ/L
  CHOLESTEROL: 71.5 mg/dL
  CREATINE PHOSPHOKINASE: 237.17 u/L
  CREATININE: 0.17 mg/dL
  GLUCOSE: 137 mg/dL
  LIPASE: 11.5 u/L
  PHOSPHORUS: 10.13 mg/dL
  POTASSIUM: 6 MEQ/L
  SODIUM: 145 MEQ/L
  TOTAL BILIRUBIN: 0.13 mg/dL
  TOTAL PROTEIN: 5.82 G/DL
  URIC ACID: 0.62 mg/dL
[3]
  ABSOLUTE BASOPHIL: 0 CELLS/uL
  ABSOLUTE EOSINOPHIL: 33 CELLS/uL
  ABSOLUTE LYMPHOCYTE: 7114.67 CELLS/uL
  ABSOLUTE MONOCYTE: 0 CELLS/uL
  ABSOLUTE SEGMENTED NEUTROPHIL: 519 CELLS/uL
  BASOPHIL: 0%
  EOSINOPHIL: 0.33%
  ERYTHROCYTE COUNT: 5.11 x10E6/uL
  HEMATOCRIT: 31.5%
  HEMOGLOBIN: 12.33 G/DL
  LEUKOCYTE COUNT: 7.67 x10E3/uL
  LYMPHOCYTE: 92.67%
  MEAN CORPUSCULAR HEMOGLOBIN: 24.2 pg
  MEAN CORPUSCULAR HEMOGLOBIN CONCENTRATION: 39.2 G/DL
  MEAN CORPUSCULAR VOLUME: 61.7 fL
  MONOCYTE: 0%
  NEUTROPHIL: 7%
  NUCLEATED RED BLOOD CELLS: 0.33 /100WBC
  PLATELET COUNT: 979 x10E3/uL
  ALANINE AMINOTRANSFERASE: 52.67 u/L
  ALBUMIN: 4 G/DL
  ALKALINE PHOSPHATASE: 368 u/L
  ASPARTATE AMINOTRANSFERASE: 88.67 u/L
  BLOOD UREA NITROGEN: 16 mg/dL
  CARBON DIOXIDE: 35.33 mmol/L
  CHLORIDE: 100.33 MEQ/L
  CHOLESTEROL: 67.33 mg/dL
  CREATINE PHOSPHOKINASE: 233 u/L
  CREATININE: 0.14 mg/dL
  GLUCOSE: 119.33 mg/dL
  LIPASE: 9.33 u/L
  PHOSPHORUS: 10.97 mg/dL
  POTASSIUM: 6.17 MEQ/L
  SODIUM: 145.03 MEQ/L
  TOTAL BILIRUBIN: 0.2 mg/dL
  TOTAL PROTEIN: 5.83 G/DL
  URIC ACID: 0.77 mg/dL
[4]
  ABSOLUTE BASOPHIL: 0 CELLS/uL
  ABSOLUTE EOSINOPHIL: 0 CELLS/uL
  ABSOLUTE LYMPHOCYTE: 6074.67 CELLS/uL
  ABSOLUTE MONOCYTE: 188.33 CELLS/uL
  ABSOLUTE SEGMENTED NEUTROPHIL: 703.67 CELLS/uL
  BASOPHIL: 0%
  EOSINOPHIL: 0%
  ERYTHROCYTE COUNT: 5.7 x10E6/uL
  HEMATOCRIT: 34.77%
  HEMOGLOBIN: 13.23 G/DL
  LEUKOCYTE COUNT: 6.97 x10E3/uL
  LYMPHOCYTE: 86.67%
  MEAN CORPUSCULAR HEMOGLOBIN: 23.2 pg
  MEAN CORPUSCULAR HEMOGLOBIN CONCENTRATION: 38.07 G/DL
  MEAN CORPUSCULAR VOLUME: 61 fL
  MONOCYTE: 2.33%
  NEUTROPHIL: 11%
  NUCLEATED RED BLOOD CELLS: 0 /100WBC
  PLATELET COUNT: 1176.67 x10E3/uL
  ALANINE AMINOTRANSFERASE: 56.33 u/L
  ALBUMIN: 4.17 G/DL
  ALKALINE PHOSPHATASE: 432.67 u/L
  ASPARTATE AMINOTRANSFERASE: 87.67 u/L
  BLOOD UREA NITROGEN: 17 mg/dL
  CARBON DIOXIDE: 31.67 mmol/L
  CHLORIDE: 99.67 MEQ/L
  CHOLESTEROL: 81 mg/dL
  CREATINE PHOSPHOKINASE: 254 u/L
  CREATININE: 0.19 mg/dL
  GLUCOSE: 152.67 mg/dL
  LIPASE: 9.67 u/L
  PHOSPHORUS: 10.57 mg/dL
  POTASSIUM: 6.09 MEQ/L
  SODIUM: 145.13 MEQ/L
  TOTAL BILIRUBIN: 0.2 mg/dL
  TOTAL PROTEIN: 6.03 G/DL
  URIC ACID: 0.77 mg/dL
